Source: patent publication US20250134863A1, “MEDICAL AGENT FOR TREATING OR SUPPRESSING PROGRESSION OF AMYOTROPHIC LATERAL SCLEROSIS” (MITSUBISHI TANABE PHARMA CORPORATION, priority 2022, published 2025)

System: ALS patients
Assay: Propensity score matching cohort evaluation, EE group vs PRO-ACT placebo, ALSFRS-R total score
Type: in vivo, human
Experimental: In a sensitivity analysis, propensity score matching cohort evaluation was conducted to compare the baseline changes in ALSFRS-R total score at 48 weeks between the EE group from the 16 trial, the 17 trial, and the 19 trial, and a matching cohort from the Pooled Resource Open-Access ALS Clinical Trials Database (hereinafter PRO-ACT) database. The EE group and PRO-ACT placebo group were matched 1:1 using a caliper width of 0.2 of the log it of the propensity score. The propensity score was developed using baseline confounding factors and ALS progression variables (gender, body weight, age, duration of ALS disease, ALSFRS-R total score baseline, uric acid baseline) of the EE group. A balance after the matching was evaluated using a standardized mean difference of less than 0.1 (Reference 6: J Clin Epidemiol 2001; 54 (4): 387-398). The propensity score was added as an explanatory variable for the MMRM analysis. Further, a subgroup analysis of uric acid levels was performed using MMRM analysis within the matching cohort, and the change from baseline in the ALSFRS-R total score at 48 weeks was compared between the EE group and the PRO-ACT placebo group.

[1] = uric acid level baseline <4.8 mg/dL
[2] = uric acid level baseline ≥4.8 mg/dL

In the case of `CC1=NN(c2ccccc2)C(=O)C1` [edaravone, 3-methyl-1-phenyl-2-pyrazolin-5-one], the “ALSFRS-R total score at Cycle 12, Mean (SD)” value (Overall) was 32.8 (7.79) points, the “ALSFRS-R total score change from baseline to cycle 12, LS Mean (SE)” value (“ALSFRS-R total score change … LS Mean (SE)” for short) (Overall) was −8.7±0.53 points and the “ALSFRS-R total score change from baseline to cycle 12, Mean (SD)” value (shortened to “ALSFRS-R total score change … (SD)”) (Overall) was −8.2 (6.16) points. The “ALSFRS-R total score change from baseline to cycle 12, LSMD vs placebo PRO-ACT (SE)” value (Overall, 95% CI [0.71, 3.72], p=0.0041) was 2.21±0.77 points, the “ALSFRS-R total score change … LS Mean (SE)” value (Overall, listed as Edaravone) was −8.7 (0.53) points and the “ALSFRS-R total score at Cycle 12, Mean (SD)” value [1] was 31.3 (8.79) points. For the same compound, the “ALSFRS-R total score change … LS Mean (SE)” value [1] was −10.3 (0.74) points, the “ALSFRS-R total score change … (SD)” value [1] was −9.6 (7.52) points and the “ALSFRS-R total score at Cycle 12, Mean (SD)” value [2] was 34.0 (6.75) points. The “ALSFRS-R total score change … LS Mean (SE)” value [2] was −7.3 (0.73) points and the “ALSFRS-R total score change … (SD)” value [2] was −7.1 (4.58) points.
